Assay results taken from ChEMBL document CHEMBL1201862, “PubChem BioAssay data set” (2004).
Blank lines part the entries; values can stand above or below the compound they belong to. The source made the active and inactive calls.

Legend:
Format in all cases: functional
[1] = target: Peroxisome proliferator-activated receptor gamma/Nuclear receptor corepressor 2 (Homo sapiens, UniProt P37231+Q9Y618); assay: Counterscreen for NR2E3 inverse agonists: TR-FRET-based biochemical high throughput dose response assay to identify inverse agonists of the interaction between peroxisome proliferator-activated receptor gamma (PPARg) and nuclear receptor co-repressor 2 (NCOR2).
[2] = target: Photoreceptor-specific nuclear receptor (Homo sapiens, UniProt Q9Y5X4); assay: ligands suppressing NR2E3 nuclear receptor activity – biochemical, TR-FRET, dose response (AID 463256)
[3] = target: T1, Corticotropin-releasing factor receptor 2/Corticotropin-releasing factor-binding protein (Homo sapiens, UniProt P24387+Q13324); assay: Dose Response confirmation of uHTS hits for small molecule antagonists of the CRF-binding protein and CRF-R2 receptor complex.; conditions: read-out: IC50_Mean
T1 sequence (Q13324 whole entry): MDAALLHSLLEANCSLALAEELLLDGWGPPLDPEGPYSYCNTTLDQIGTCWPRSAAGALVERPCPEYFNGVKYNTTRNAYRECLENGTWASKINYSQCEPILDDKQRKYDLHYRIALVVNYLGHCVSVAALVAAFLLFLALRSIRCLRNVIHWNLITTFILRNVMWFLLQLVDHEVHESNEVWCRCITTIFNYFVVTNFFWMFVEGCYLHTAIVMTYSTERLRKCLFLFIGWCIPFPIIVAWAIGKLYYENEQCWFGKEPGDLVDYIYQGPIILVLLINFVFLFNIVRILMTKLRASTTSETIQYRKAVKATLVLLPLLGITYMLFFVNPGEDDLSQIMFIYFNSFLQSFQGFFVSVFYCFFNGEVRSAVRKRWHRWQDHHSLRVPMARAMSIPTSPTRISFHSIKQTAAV
T1 sequence (P24387 whole entry): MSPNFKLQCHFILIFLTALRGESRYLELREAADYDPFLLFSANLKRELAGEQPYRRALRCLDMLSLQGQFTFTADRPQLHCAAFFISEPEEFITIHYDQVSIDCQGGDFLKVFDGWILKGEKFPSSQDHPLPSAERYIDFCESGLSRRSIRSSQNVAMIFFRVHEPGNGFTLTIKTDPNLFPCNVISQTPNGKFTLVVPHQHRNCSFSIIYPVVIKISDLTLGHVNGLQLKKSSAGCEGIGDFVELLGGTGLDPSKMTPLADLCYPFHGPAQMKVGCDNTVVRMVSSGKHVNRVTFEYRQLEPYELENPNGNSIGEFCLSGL

[4] = target: T1, Corticotropin-releasing factor receptor 2/Corticotropin-releasing factor-binding protein; assay: activators of CRF receptor 2 with binding protein – uHTS hits, confirmation (AID 602473); conditions: read-out: EC50_Mean
[5] = target: Peroxisome proliferator-activated receptor gamma/Nuclear receptor coactivator 2 (Homo sapiens, UniProt P37231);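 further: agonist potency for raising coactivator recruitment to the receptor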
[6] = target: Peroxisome proliferator-activated receptor gamma/Nuclear receptor coactivator 1 (Homo sapiens, UniProt P37231);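 further: agonist potency as compounds enhance coactivator SRC-1 recruitment to PPARgamma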
[7] = target: Peroxisome proliferator-activated receptor gamma/Nuclear receptor coactivator 3 (Homo sapiens, UniProt P37231);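 further: agonist potency for raising coactivator recruitment to the receptor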
[8] = target: T2, Small ubiquitin-related modifier 1 (Homo sapiens, UniProt P63165); assay: SUMO1 protein interaction blockers, potency – biochemical, fluorescence polarization, uHTS hits, dose response (AID 624382); conditions: read-out: IC50_Mean
[9] = target: T2, Small ubiquitin-related modifier 1; assay: SUMO1 protein-protein binding blockers, potency – biochemical, FRET, dose response (AID 624383); conditions: read-out: IC50_Mean
[10] = Counterscreen for IDE inhibitors: Luminescence-based cell-based high throughput dose response assay to identify compounds that are cytotoxic to HEK cells. [Related pubchem assays: 434962 (Primary screen (IDE inhibitors in singlicate)), 449730 (Counterscreen (Cytotoxicity in triplicate)), 435028 (Confirmation (IDE inhibitors in triplicate)) …; conditions: HEK293
Insulin-degrading enzyme = target: T3, Insulin-degrading enzyme (Homo sapiens, UniProt P14735); assay: Dose Response: Fluorescence polarization-based cell-based high throughput dose response assay for inhibitors of insulin-degrading enzyme (IDE). [Related pubchem assays: 434962 (Primary screen (IDE inhibitors in singlicate)), 449730 (Counterscreen (Cytotoxicity in triplicate)), 435028 (Confirmation (IDE inhibitors in triplicate)), 434984 (Summary …
T3 sequence (P14735 whole entry): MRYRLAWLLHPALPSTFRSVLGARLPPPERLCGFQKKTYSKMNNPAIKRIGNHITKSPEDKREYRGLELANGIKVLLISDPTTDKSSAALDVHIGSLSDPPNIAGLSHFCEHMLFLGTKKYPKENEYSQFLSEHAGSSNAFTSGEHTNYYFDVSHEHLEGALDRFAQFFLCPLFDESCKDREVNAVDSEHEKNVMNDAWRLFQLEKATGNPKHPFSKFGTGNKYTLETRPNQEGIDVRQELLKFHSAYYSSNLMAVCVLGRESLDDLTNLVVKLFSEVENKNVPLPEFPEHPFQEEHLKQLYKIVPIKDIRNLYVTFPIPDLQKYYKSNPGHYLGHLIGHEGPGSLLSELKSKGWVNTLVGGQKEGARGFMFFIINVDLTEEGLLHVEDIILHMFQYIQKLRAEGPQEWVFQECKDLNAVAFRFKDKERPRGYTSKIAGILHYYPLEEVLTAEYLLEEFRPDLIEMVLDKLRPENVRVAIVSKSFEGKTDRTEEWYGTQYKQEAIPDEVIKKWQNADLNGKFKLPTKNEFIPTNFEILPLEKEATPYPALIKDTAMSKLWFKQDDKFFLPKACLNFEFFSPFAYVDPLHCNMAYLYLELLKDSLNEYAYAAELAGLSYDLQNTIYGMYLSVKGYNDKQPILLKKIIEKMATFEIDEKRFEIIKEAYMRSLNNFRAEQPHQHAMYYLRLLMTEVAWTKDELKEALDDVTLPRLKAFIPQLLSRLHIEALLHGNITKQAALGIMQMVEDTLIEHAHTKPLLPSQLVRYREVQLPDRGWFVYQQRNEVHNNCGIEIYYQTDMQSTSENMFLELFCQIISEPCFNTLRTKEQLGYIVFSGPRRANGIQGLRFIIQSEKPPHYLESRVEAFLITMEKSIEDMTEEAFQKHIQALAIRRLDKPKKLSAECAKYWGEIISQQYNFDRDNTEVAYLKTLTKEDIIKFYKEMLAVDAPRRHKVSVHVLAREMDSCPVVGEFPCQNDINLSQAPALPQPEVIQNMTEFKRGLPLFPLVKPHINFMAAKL

[11] = target: DNA dC->dU-editing enzyme APOBEC-3A (Homo sapiens, UniProt P31941); assay: Dose Response confirmation of small molecule APOBEC3A DNA Deaminase Inhibitors via a fluorescence-based single-stranded DNA deaminase assay. [Related pubchem assays (depositor defined):AID493011, AID493024]
[12] = target: DNA dC->dU-editing enzyme APOBEC-3G (Homo sapiens, UniProt Q9HC16);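 further: Dose-response counterscreen measuring inhibition of APOBEC3G DNA deaminase activity, run while confirming APOBEC3A inhibitors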
Chain of DNA dC->dU-editing enzyme APOBEC-3G (Q9HC16 whole entry): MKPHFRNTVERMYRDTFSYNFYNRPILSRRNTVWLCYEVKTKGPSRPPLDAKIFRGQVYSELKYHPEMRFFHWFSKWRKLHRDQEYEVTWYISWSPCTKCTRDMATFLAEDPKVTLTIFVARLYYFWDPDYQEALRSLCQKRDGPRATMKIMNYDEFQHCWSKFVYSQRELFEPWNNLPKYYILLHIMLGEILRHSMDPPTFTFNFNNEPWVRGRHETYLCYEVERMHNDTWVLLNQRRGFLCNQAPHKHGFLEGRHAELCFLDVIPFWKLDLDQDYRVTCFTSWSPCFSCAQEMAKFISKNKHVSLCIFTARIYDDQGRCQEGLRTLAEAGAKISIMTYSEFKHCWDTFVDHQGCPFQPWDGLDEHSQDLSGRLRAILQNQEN

Chain of Peroxisome proliferator-activated receptor gamma/Nuclear receptor corepressor 2 (P37231 whole entry): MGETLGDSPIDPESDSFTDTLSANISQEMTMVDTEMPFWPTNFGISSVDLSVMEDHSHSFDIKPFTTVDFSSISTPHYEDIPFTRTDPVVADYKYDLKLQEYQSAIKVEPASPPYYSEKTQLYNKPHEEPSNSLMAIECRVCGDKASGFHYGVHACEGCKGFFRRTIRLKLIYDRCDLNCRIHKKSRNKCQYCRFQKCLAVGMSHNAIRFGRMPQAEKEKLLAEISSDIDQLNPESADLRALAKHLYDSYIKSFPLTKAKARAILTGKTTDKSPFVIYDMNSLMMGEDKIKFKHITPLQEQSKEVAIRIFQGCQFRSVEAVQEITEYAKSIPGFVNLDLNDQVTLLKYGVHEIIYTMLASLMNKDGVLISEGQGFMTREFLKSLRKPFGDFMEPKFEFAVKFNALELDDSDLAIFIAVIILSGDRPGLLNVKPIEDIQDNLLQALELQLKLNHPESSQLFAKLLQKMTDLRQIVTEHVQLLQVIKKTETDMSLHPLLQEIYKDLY
Chain of Peroxisome proliferator-activated receptor gamma/Nuclear receptor corepressor 2 (Q9Y618 whole entry): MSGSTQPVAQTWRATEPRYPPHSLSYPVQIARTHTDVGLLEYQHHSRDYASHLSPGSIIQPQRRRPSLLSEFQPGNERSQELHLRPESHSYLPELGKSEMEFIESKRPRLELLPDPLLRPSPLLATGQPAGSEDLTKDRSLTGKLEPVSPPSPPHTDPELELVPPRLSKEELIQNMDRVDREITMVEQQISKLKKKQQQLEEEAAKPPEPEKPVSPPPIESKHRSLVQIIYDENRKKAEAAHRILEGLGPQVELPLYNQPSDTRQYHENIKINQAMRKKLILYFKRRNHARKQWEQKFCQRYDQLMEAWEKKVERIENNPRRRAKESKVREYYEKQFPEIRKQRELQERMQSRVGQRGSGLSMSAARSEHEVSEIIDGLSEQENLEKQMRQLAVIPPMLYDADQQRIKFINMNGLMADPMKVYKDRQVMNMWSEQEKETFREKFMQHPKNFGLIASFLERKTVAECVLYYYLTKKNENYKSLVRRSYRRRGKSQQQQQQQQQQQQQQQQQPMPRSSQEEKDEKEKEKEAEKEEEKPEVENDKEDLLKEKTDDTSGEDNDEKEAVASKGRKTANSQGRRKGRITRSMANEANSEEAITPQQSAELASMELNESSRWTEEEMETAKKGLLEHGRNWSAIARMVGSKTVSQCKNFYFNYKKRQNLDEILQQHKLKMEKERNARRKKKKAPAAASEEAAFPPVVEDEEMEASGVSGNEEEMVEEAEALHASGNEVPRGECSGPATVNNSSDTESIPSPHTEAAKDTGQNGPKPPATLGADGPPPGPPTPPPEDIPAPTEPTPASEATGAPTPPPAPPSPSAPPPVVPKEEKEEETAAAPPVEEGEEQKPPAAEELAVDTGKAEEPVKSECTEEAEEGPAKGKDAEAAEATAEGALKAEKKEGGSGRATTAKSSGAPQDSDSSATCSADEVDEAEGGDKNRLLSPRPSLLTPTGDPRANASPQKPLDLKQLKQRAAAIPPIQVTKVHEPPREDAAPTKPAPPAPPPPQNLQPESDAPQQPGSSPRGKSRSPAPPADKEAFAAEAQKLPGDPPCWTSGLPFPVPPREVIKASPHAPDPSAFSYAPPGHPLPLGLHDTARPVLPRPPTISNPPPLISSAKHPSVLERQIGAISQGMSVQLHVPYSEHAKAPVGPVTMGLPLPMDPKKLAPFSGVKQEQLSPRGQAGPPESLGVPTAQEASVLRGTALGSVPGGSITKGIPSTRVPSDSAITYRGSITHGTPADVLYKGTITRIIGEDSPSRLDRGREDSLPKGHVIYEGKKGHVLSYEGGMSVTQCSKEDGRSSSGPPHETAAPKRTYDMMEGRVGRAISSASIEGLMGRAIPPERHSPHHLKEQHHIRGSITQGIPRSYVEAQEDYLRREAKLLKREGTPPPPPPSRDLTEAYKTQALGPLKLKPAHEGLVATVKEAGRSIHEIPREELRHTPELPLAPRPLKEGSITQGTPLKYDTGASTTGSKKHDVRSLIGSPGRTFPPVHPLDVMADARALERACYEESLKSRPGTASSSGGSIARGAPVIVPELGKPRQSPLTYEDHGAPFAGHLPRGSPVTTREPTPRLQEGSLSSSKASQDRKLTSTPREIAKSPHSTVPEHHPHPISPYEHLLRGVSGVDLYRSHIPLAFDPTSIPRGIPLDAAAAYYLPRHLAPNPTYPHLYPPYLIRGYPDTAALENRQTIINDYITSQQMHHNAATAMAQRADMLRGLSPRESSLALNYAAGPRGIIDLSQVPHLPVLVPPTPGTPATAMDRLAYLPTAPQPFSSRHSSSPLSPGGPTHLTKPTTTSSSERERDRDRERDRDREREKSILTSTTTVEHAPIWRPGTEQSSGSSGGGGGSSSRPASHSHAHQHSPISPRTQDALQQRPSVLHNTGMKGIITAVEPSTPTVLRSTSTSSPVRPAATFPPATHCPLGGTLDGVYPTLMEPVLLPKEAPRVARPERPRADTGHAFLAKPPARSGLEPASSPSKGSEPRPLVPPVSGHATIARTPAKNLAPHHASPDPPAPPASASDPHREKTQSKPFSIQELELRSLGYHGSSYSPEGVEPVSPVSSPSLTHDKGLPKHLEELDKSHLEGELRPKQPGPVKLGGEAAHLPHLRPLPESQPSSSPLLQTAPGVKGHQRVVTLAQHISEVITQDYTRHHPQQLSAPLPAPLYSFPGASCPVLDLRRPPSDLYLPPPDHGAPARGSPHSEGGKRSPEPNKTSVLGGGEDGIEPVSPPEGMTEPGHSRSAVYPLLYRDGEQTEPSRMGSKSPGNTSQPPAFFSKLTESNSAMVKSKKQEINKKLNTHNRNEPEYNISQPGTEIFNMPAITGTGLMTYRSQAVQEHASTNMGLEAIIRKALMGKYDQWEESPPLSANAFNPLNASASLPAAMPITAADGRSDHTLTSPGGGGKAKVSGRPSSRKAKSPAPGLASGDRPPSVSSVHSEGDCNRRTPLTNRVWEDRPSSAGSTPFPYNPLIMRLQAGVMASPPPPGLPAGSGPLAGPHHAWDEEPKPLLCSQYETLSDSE
T2 sequence (P63165 whole entry): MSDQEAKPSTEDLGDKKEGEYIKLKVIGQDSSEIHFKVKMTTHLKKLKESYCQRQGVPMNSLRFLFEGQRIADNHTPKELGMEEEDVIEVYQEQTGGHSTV
Chain of Photoreceptor-specific nuclear receptor (Q9Y5X4 whole entry): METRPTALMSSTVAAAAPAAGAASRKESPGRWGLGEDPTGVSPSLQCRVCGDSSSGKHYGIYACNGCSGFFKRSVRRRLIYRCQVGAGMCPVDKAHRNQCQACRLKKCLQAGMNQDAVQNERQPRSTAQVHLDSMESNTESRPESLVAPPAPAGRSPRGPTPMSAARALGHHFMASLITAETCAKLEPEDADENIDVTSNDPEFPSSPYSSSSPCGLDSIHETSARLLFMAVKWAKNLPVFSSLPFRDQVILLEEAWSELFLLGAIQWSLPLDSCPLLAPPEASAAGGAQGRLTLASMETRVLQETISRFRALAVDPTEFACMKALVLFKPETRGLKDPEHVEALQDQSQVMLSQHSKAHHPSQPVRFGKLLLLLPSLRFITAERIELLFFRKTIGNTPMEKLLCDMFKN
Chain of DNA dC->dU-editing enzyme APOBEC-3A (P31941 whole entry): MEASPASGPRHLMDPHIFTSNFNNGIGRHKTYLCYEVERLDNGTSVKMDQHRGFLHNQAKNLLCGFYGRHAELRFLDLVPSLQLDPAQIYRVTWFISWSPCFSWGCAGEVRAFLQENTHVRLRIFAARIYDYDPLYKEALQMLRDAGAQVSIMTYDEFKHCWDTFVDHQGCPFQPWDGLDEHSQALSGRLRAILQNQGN

IC50 [1]: 2.9 µM (active)
IC50 [2]: 3.53 µM (active)
IC50 [3]: > 47.1 µM (inactive)
EC50 [4]: > 53 µM (inactive)
Structure (SMILES): CC(=O)c1ccc(NC(=O)CSc2ccc(-c3ccc4c(c3)OCO4)nn2)cc1

EC50 [5]: > 79.4 µM (not active)
EC50 [6]: > 79.4 µM (not active)
EC50 [7]: > 79.4 µM (not active)
Structure (SMILES): Cc1cc(C)c(S(=O)(=O)Nc2ccc3[nH]c(O)nc3c2)c(C)c1

Structure (SMILES): Cc1ccc(NC(=O)CSc2nc3ccccc3c3nc(CCc4c(C)n[nH]c4C)nn23)cc1F
IC50 [1]: 0.356 µM (active)
IC50 [2]: 0.474 µM (active)
IC50 [8]: > 66.6 µM (inactive)
IC50 [9]: 3.78 µM (active)

Structure (SMILES): CC[n+]1c(/C=C2/C=CN(CCCS(=O)(=O)[O-])c3ccccc32)sc2ccccc21
IC50 [10]: > 55.7 µM (not active)
IC50 (Insulin-degrading enzyme): 12.3 µM (not active)
IC50 [11]: 2.69 µM (active)
IC50 [12]: 2.97 µM (active)
